Earlier results in patent US20200397756A1, “A STABLE PHARMACEUTICAL COMPOSITION OF POORLY SOLUBLE NONSTEROIDAL ANTIANDROGENS” (KASHIV BIOSCIENCES, LLC, priority 2018, published 2020).

Key:
[1] = water between pH 1 to 11
[2] = not given; remark: listed apart in the source

solubility in water [1] | permeability | solubility in absolute ethanol [2] | Compound
practically insoluble | high | sparingly soluble | CNC(=O)c1ccc(N2C(=S)N(c3ccc(C#N)c(C(F)(F)F)c3)C(=O)C2(C)C)cc1F [Enzalutamide, 4-{3-[4-cyano-3-(trifluoromethyl)phenyl]-5,5-dimethyl-4-oxo-2-sulfanylideneimidazolidin-1-yl}-2-fluoro-N-methylbenzamide]
practically insoluble | high | sparingly soluble | CNC(=O)c1ccc(N2C(=S)N(c3cnc(C#N)c(C(F)(F)F)c3)C(=O)C23CCC3)cc1F [apalutamide, 4-(7-(6-Cyano-5-(trifluoromethyl)pyridin-3-yl)-8-oxo-6-thioxo-5,7-diazaspiro(3.4)octan-5-yl)-2-fluoro-N-methylbenzamide]
